Patent publication US20250177376A1, “ALPHA 2 ADRENERGIC RECEPTOR BLOCKADE FOR THE TREATMENT OF C. DIFFICILE COLITIS” (University of Virginia Patent Foundation, priority 2022, published 2025)
Values joined by “and” are separate entries in the source; they are usually repeats but may differ in a detail not shown here. Identical values can stand only once. “Also recorded” adds a separate entry of the source. Counter-ions that a name gives are not always drawn.

Columns and labels:
[1] = test system: C. difficile infection (CDI); assay: Mouse CDI model: survival, weight loss, clinical score; assay type: in vivo, mice; settings: for clinical score versus ORA-PLUS vehicle: oral gavage days -1, 0, 1, scores at days 2-8
[2] = test system: eosinophils, neutrophils, monocytes; assay: Infiltrating colonic immune cells in CDI mice by flow cytometry; settings: for monocyte levels / neutrophil levels: 6-OHDA vs PBS/saline, desipramine vs 6-OHDA alone
Method: To determine whether the sympathetic nervous system was necessary for a mounting of the inflammatory response, the infiltrating immune cell response in 6-OHDA-treated mice was measured by flow cytometry.

cytokines = assay: Luminex 32-plex cytokine levels in cecal tissue of CDI mice; settings: IL-2, IL-4, IL-10, IL-12 (p40, p70), IL-15, MIP-1a, MIP-1b, LIX, VEGF, IL-5, GM-CSF, M-CSF, G-CSF, Eotaxin, IL-1b, IL-6, LIF, IP-10, KC, MCP-1, MIP2, MIG, IFNγ, IL-1a, IL-9, TNFa
Method: The levels of numerous cytokines were tested in PBS-treated mice and mice administered 6-OHDA.

C. difficile [3] = assay: C. difficile counts (CFU) from cecal contents; assay type: in vivo; settings: cecal contents at 18 hours post-infection
Method: C. difficile counts were quantified from cecal contents at 18 hours post-infection. Cecal contents were resuspended by mass in anaerobic PBS. […] Colony counts were made manually.

toxin A/B = assay: Toxin A/B ELISA of cecal contents; assay type: in vivo, C. difficile; settings: cecal contents 2 days post-infection
Method: ADRA2A inhibition with RX 821002 was also tested for any affects on toxin A/B levels in mice. Briefly, […] in cecal contents of mice sacrificed 2 days post-infection was determined by a Toxin A/B ELISA from TECHLAB, Inc. (Catalog No. TL5025). Prior to the ELISA, cecal contents were resuspended in PBS by mass. The Toxin A/B ELISA was performed according to the manufacturer's instructions. Mice were treated with RX 821002 and toxin A/B levels in CDI cecal content were determined.

C. difficile [4] = assay: C. difficile colonization in cecal contents by GDH ELISA; assay type: in vivo; settings: cecal contents 2 days post-infection
Method: CDI colonization levels were also determined in PBS-treated mice (negative control) and mice treated with RX 821002. Briefly, C. difficile colonization in cecal contents of mice sacrificed 2 days post-infection was determined by a GDH ELISA from […], Inc. (Blacksburg, Virginia, United States of America; Catalog No. TL5025). Prior to the ELISA, cecal contents were resuspended in PBS by mass. The GDH ELISA was performed according to the manufacturer's instructions.

[5] = CDI mouse model, 6-OHDA 80 mg/kg i.p., propranolol, SR 59230A, RX 821002 10 mg/kg i.p., nepicastat oral gavage

SMILES: NCCc1cc(O)c(O)cc1O [6-OHDA, 6-hydroxydopamine]
- effect on survival / CDI-induced mortality versus negative control ([1]; mouse, in vivo): strikingly ameliorated the incidence of mortality; also recorded: complete protection from death
- mice still alive through day 5 post-infection ([1]; mouse, in vivo): 100%
- weight loss versus control ([1]; mouse, in vivo): significantly (p<0.001) reduced; also recorded: strikingly ameliorated
- mice still alive at day 7 post-infection ([1]; mouse, in vivo, ip, 80 mg/kg): 90% and 80%
- monocyte levels [2]: not significantly reduced
- neutrophil levels [2]: significantly reduced; also recorded: less representative of the colonic immune cells
- eosinophil levels ([2]; vs PBS/Saline): did not reach statistical significance
- cytokine levels versus PBS-treated mice (cytokines): statistically significantly reduced; also recorded: lower amounts of cytokines
- cytokine levels versus PBS-treated mice (cytokines; listed as 6-hydroxydopamine): block in pro-inflammatory cytokine response

SMILES: CCc1ccccc1OC[C@@H](O)CN[C@H]1CCCc2ccccc21 [SR 59230A, (2S)-1-(2-ethylphenoxy)-3-[[(1S)-1,2,3,4-tetrahydronaphthalen-1-yl]amino]propan-2-ol]
- effect on survival / CDI-induced mortality versus negative control [1, 5]: increased the incidence of mortality; also recorded: exacerbated CDI disease progression
- mice dead prior to day 3 post-infection ([1]; CDI mouse model, SR 59230A 10 mg/kg i.p.): 100%

SMILES: NCc1c[nH]c(=S)n1[C@H]1CCc2c(F)cc(F)cc2C1 [nepicastat hydrochloride, 5-(Aminomethyl)-1-[(2S)-5,7-difluoro-1,2,3,4-tetrahydro-2-naphthalenyl]-1,3-dihydro-2H-imidazole-2-thione]
- effect on survival / CDI-induced mortality versus negative control [1, 5]: protected against CDI-induced mortality; also recorded: significantly improved survival
- effect on survival / CDI-induced mortality versus negative control ([1]; CDI mouse model, 6-OHDA 80 mg/kg i.p., propranolol, SR 59230A, RX 821002 10 mg/kg i.p., nepicastat oral gavage, listed as nepicastat): greatly reduced the incidence of mortality
- clinical score versus ORA-PLUS vehicle ([1]; CDI mouse model): statistically significantly lower
- clinical score versus ORA-PLUS vehicle ([1]; CDI mouse model, listed as Nepicastat): significantly better clinical scores

SMILES: CNCCCN1c2ccccc2CCc2ccccc21 [desipramine, 3-(10,11-dihydro-5H-dibenzo[b,f]azepin-5-yl)-N-methylpropan-1-amine]
- effect on survival / CDI-induced mortality versus negative control ([1]; mouse, in vivo): prevented the protective effect of 6-OHDA on the incidence of mortality
- monocyte levels [2]: statistically significant elevation
- neutrophil levels [2]: negated this reduction

SMILES: COC(=O)[C@@H]1[C@H]2C[C@H]3c4[nH]c5ccccc5c4CCN3C[C@@H]2CC[C@@H]1O [yohimbine, methyl(1S,15R,18S,19R,20S)-18-hydroxy-1,3,11,12,14,15,16,17,18,19,20,21-dodecahydroyohimban-19-carboxylate]
- effect on survival / CDI-induced mortality versus negative control [1, 5]: statistically significant amelioration of CDI induced mortality

SMILES: COC1(C2=NCCN2)COc2ccccc2O1 (centres unmarked) [RX 821002, 2-(3-methoxy-2H-1,4-benzodioxin-3-yl)-4,5-dihydro-1H-imidazole]
- effect on survival / CDI-induced mortality versus negative control [1, 5]: statistically significant difference in percent survival; also recorded: drastically reduced; also recorded: ameliorated CDI induced mortality; also recorded: protection
- C. difficile burden, colony-forming units (CFU)/mg/ml, versus PBS (C. difficile [3]): no difference
- toxin A/B levels in CDI cecal content (toxin A/B): reduced
- CDI colonization (GDH ELISA) versus PBS (C. difficile [4]): no effect
